Results taken from patent publication US20200045965A1, “METHOD FOR THE CONTROL OF PLANT BACTERIAL DISEASES USING CARBOXAMIDE DERIVATIVES” (BAYER CROPSCIENCE AKTIENGESELLSCHAFT, priority 2016, published 2020).

Assays:
[1] = test system: Xanthomonas spp.; assay: Field trial in vivo against bacterial leaf streak on spring wheat, foliar spray; set-up: species or system Xanthomonas translucens
Experimental: EXAMPLE 2: TEST IN VIVO AGAINST XANTHOMONAS TRANSLUCENS (WHEAT)
Field trials were conducted to test the efficacy of N-(5-chloro-2-isopropylbenzyl)-N-cyclopropyl-3-(difluoromethyl)-5-fluoro-1-methyl-1H-pyrazole-4-carboxamide (compound A5) in combination with the commercial standard Prosaro (a 1:1 combination of Prothioconazole and Tebuconazole) against bacterial leaf streak caused by Xanthomonas spp. when sprayed on leaves. A control without compound A5 was tested in same conditions.
The field trials were randomized, had 4 replicates and plot size was 15.24 m^2. Fertilization, herbicide- and insecticide applications were carried out according to the local agricultural practice.
N-(5-chloro-2-isopropylbenzyl)-N-cyclopropyl-3-(difluoromethyl)-5-fluoro-1-methyl-1H-pyrazole-4-carboxamide was applied as SC 280 formulation in 3 rates in combination with the commercial standard Prosaro. Test was conducted in a Spring wheat which was treated in growth stage EC 61 with one foliar application.
22 days after application the efficacy of the tested products against the bacterial leaf streak caused by Xanthomonas spp. was visually assessed. The effect was evaluated as preservation of remaining green leaves (GRNLVS) in a scale from 1-6 (meaning 1 best and 6 worst green leaf preservation)

[2] = test system: Pseudomonas syringae; assay: Field trials in vivo against Pseudomonas syringae on coffee tree, foliar spray
Experimental: EXAMPLE 1: TEST IN VIVO AGAINST PSEUDOMONAS SYRINGAE (COFFEE)
Two field trials were conducted to find out the efficacy of N-(5-chloro-2-isopropylbenzyl)-N-cyclopropyl-3-(difluoromethyl)-5-fluoro-1-methyl-1H-pyrazole-4-carboxamide (compound A5) against bacteria (Pseudomonas syringae) when sprayed on leaves of coffee tree.
The field trials were randomized, had 3 replicates and plot size was 20 m. The product was applied as an EC 100—formulation in a spray sequence consisting of three foliar applications, beginning in the growth stage EC59. The sprays were done with an interval of approximately 4 weeks (between treatments). About 3 and 11 weeks after the third application the efficacy of the compound against the bacterial pathogen Pseudomonas syringae was visually assessed as incidence of infested leaf rosettes or branches per plot (in %). Then the incidence values were converted into control (% Abbott).

[3] = log P by HPLC on reversed-phase column (EEC Directive 79/831 Annex V.A8); assay type: physicochemical; conditions: HPLC C18, 40° C., 0.1% aqueous formic acid and acetonitrile
Experimental: Table 1 provides the log P and NMR data (^1H) of compounds A1 to A20.
In table 1, the log P values were determined in accordance with EEC Directive 79/831 Annex V.A8 by HPLC (High Performance Liquid Chromatography) on a reversed-phase column (C 18), using the method described below:
Temperature: 40° C.; Mobile phases: 0.1% aqueous formic acid and acetonitrile; linear gradient from 10% acetonitrile to 90% acetonitrile.
Calibration was carried out using unbranched alkan-2-ones (comprising 3 to 16 carbon atoms) with known log P values (determination of the log P values by the retention times using linear interpolation between two successive alkanones). lambda-max-values were determined using UV-spectra from 200 nm to 400 nm and the peak values of the chromatographic signals.

Compound | suppressing bacterial leaf streak caused by Xanthomonas spp. (conclusion in words) [1] | effect on bacterial disease caused by Pseudomonas syringae in coffee (conclusion in words) ([2]; based on the two field trials) | ABBOTT (%) leaf rosette 21 DA3 ([2]; coffee, first trial (Table 1), 75 g a.i./ha, 21 days after third application) [%] | ABBOTT (%) branch 74 DA3 ([2]; coffee, first trial (Table 1), 75 g a.i./ha, 74 days after third application) [%] | LEAF ROSETTE INCIDENCE (%) 21 DA3 ([2]; coffee, first trial (Table 1), 75 g a.i./ha, EC 100, three foliar applications, 21 days after third application, untreated 12.2) [%] | ABBOTT (%) leaf rosette 20 DA3 ([2]; coffee, second trial (Table 2), 75 g a.i./ha, 20 days after third application) [%] | LEAF ROSETTE INCIDENCE (%) 20 DA3 ([2]; coffee, second trial (Table 2), 75 g a.i./ha, 20 days after third application, untreated 3.5) [%] | logP [3]
CC(C)c1ccc(Cl)cc1CN(C(=O)c1c(C(F)F)nn(C)c1F)C1CC1 [Compound A5, N-(5-chloro-2-isopropylbenzyl)-N-cyclopropyl-3-(difluoromethyl)-5-fluoro-1-methyl-1H-pyrazole-4-carboxamide] | proves the efficiency | suppresses the bacterial disease | 39.2 | 45 | 7.4 | 65.2 | 1.2 | –
N-cyclopropyl-3-(difluoromethyl)-5-fluoro-N-(2-isopropylbenzyl)-1-methyl-1H-pyrazole-4-carbothio-amide [Compound A20] | – | – | – | – | – | – | – | 4.36
